Data taken from ChEMBL document CHEMBL3393026, “A selective small molecule NOP (ORL-1 receptor) partial agonist for the treatment of anxiety” (Bioorg Med Chem Lett, 2015).

How the values were obtained:
Rattus norvegicus [1] = assay: Sedative activity in Long-Evans hooded rat assessed as vertical movements at 0.1 mg/kg, ip by spontaneous locomotor activity test; format: organism-based; parameters: dose 0.1 mg/kg, route intraperitoneal; conditions: in vivo
Rattus norvegicus [2] = assay: Sedative activity in Long-Evans hooded rat assessed as vertical movements at 0.3 mg/kg, ip by spontaneous locomotor activity test; format: organism-based; parameters: dose 0.3 mg/kg, route intraperitoneal; conditions: in vivo
Rattus norvegicus [3] = assay: Sedative activity in Long-Evans hooded rat assessed as vertical movements at 3 mg/kg, ip by spontaneous locomotor activity test; format: organism-based; parameters: dose 3 mg/kg, route intraperitoneal; conditions: in vivo
Rattus norvegicus [4] = assay: Sedative activity in Long-Evans hooded rat assessed as vertical movements at 10 mg/kg, ip by spontaneous locomotor activity test; format: organism-based; parameters: dose 10 mg/kg, route intraperitoneal; conditions: in vivo
Rattus norvegicus [5] = assay: Anxiolytic activity in Long-Evans hooded rat assessed as open arm time at 3 mg/kg, ip by elevated plus maze test; format: functional; conditions: route intraperitoneal
Rattus norvegicus [6] = assay: Sedative activity in Long-Evans hooded rat assessed as vertical movements at 0.03 mg/kg, ip by spontaneous locomotor activity test; format: organism-based; parameters: dose 0.03 mg/kg, route intraperitoneal; conditions: in vivo
Rattus norvegicus [7] = assay: Anxiolytic activity in Long-Evans hooded rat assessed as open arm time at 0.03 mg/kg, ip by elevated plus maze test; format: functional; conditions: route intraperitoneal
Rattus norvegicus [8] = assay: Anxiolytic activity in Long-Evans hooded rat assessed as open arm time at 0.1 mg/kg, ip by elevated plus maze test; format: functional; conditions: route intraperitoneal
Rattus norvegicus [9] = assay: Sedative activity in Long-Evans hooded rat assessed as vertical movements at 1 mg/kg, ip by spontaneous locomotor activity test; format: organism-based; parameters: dose 1 mg/kg, route intraperitoneal; conditions: in vivo
Rattus norvegicus [10] = assay: Anxiolytic activity in Long-Evans hooded rat assessed as open arm time at 1 mg/kg, ip by elevated plus maze test; format: functional; conditions: route intraperitoneal
Rattus norvegicus [11] = assay: Anxiolytic activity in Long-Evans hooded rat assessed as open arm time at 0.3 mg/kg, ip by elevated plus maze test; format: functional; conditions: route intraperitoneal
Rattus norvegicus [12] = assay: Anxiolytic activity in Long-Evans hooded rat assessed as open arm time at 0.5 mg/kg, ip by elevated plus maze test; format: functional; conditions: route intraperitoneal
Rattus norvegicus [13] = assay: Sedative activity in Long-Evans hooded rat assessed as vertical movements at 0.5 mg/kg, ip by spontaneous locomotor activity test; format: organism-based; parameters: dose 0.5 mg/kg, route intraperitoneal; conditions: in vivo

| Structure (SMILES) | Activity (Rattus norvegicus [1]) [%] | Activity (Rattus norvegicus [2]) [%] | Activity (Rattus norvegicus [3]) [%] | Activity (Rattus norvegicus [4]) [%] | Activity (Rattus norvegicus [5]) [%] | Activity (Rattus norvegicus [6]) [%] | Activity (Rattus norvegicus [7]) [%] | Activity (Rattus norvegicus [8]) [%] | Activity (Rattus norvegicus [9]) [%] | Activity (Rattus norvegicus [10]) [%] | Activity (Rattus norvegicus [11]) [%] | Activity (Rattus norvegicus [12]) [%] | Activity (Rattus norvegicus [13]) [%] |
| --- | --- | --- | --- | --- | --- | --- | --- | --- | --- | --- | --- | --- | --- |
| CCCCN(Cc1ccccc1)C[C@H](O)CN1CN(c2ccc(F)cc2)C2(CCN(CC3CCCCCCC3)CC2)C1=O | 11.4 | 16 | 2.2 | -6.2 | 24 | -0.4 | 5.9 | 72.5 | 7.6 | 57.8 | 54.4 | – | – |
| O=C1Nc2ccc(Cl)cc2C(c2ccccc2Cl)=NC1O (stereo not drawn) [LORAZEPAM] | – | – | – | – | – | – | – | – | – | – | – | 222.4 | -72 |
